What was measured:
Assay in all cases: Cell panel screen (CellTiter-Glo)
Assay type in all cases: cell-based, human
HCC1937 = HCC1937 (Breast), 20 micromolar, 72 hrs
Procedure: (§1) All cells were obtained from the cell bank of the American Type Culture Collection (ATCC) and cultured in the supplier's recommended media supplemented with 10% FBS. The cell panel screen was measured using the CellTiter-Glo assay (Promega, Madison, WI) following a standard protocol. Briefly, cancer cells were seeded in 96-well plates and cultured overnight at 37°C with or without 5% CO2 in an incubator. Each compound was dissolved with limited DMSO and diluted to a certain concentration with culture medium and then added to the corresponding well of the cell plate. The final concentration of compound was 20 μM. The control cells (without treatment) received the same amount of DMSO and were incubated under the same conditions. After 72 h cultivation, 100 μL of the CellTiter-Glo reagent was added directly to each well for 10-minute incubation. The plate was then read on a FlexStation 3 microplate luminometer (Molecular Devices, USA) to monitor the luminescence signal generated by the luciferase-catalyzed reaction of luciferin and ATP. The percent of growth inhibition was calculated using the following formula: (untreated cells − treated cells)/(untreated cells − background without cells) ∗ 100.

A704 = A704 (Kidney), 20 micromolar, 72 hrs
Procedure: as §1

BT-474 = BT-474 (Breast), 20 micromolar, 72 hrs
Procedure: as §1

Panc 03.27 = Panc 03.27 (Pancreas), 20 micromolar, 72 hrs
Procedure: as §1

HPAF-II = HPAF-II (Pancreas), 20 micromolar, 72 hrs
Procedure: as §1

RL95 = RL95 (Uterus), 20 micromolar, 72 hrs
Procedure: as §1

CW-2 = CW-2 (Colon), 20 micromolar, 72 hrs
Procedure: as §1

NCI-H1623 = NCI-H1623 (Lung), 20 micromolar, 72 hrs
Procedure: as §1

HCC1599 = HCC1599 (Breast), 20 micromolar, 72 hrs
Procedure: as §1

HCC1395 = HCC1395 (Breast), 20 micromolar, 72 hrs
Procedure: as §1

MSTO-211-H = MSTO-211-H (Lung), 20 micromolar, 72 hrs
Procedure: as §1

NCI-H524 = NCI-H524 (Lung), 20 micromolar, 72 hrs
Procedure: as §1

CCF-STTG1 = CCF-STTG1 (Brain), 20 micromolar, 72 hrs
Procedure: as §1

M059J = M059J (Brain), 20 micromolar, 72 hrs
Procedure: as §1

J82 = J82 (Urinary bladder), 20 micromolar, 72 hrs
Procedure: as §1

C8166 = C8166 (Leukemia), 20 micromolar, 72 hrs
Procedure: as §1

A498 = A498 (listed under Lung), 20 micromolar, 72 hrs
Procedure: as §1

NCI-H1770 = NCI-H1770 (Lung), 20 micromolar, 72 hrs
Procedure: as §1

C3A = C3A (Liver), 20 micromolar, 72 hrs
Procedure: as §1

HGC-27 = HGC-27 (Stomach), 20 micromolar, 72 hrs
Procedure: as §1

Colo 205 = details: Colo 205, 20 micromolar, 72 hrs
Procedure: as §1

T47D = T47D (Breast), 20 micromolar, 72 hrs
Procedure: as §1

HEC-1-A = HEC-1-A (Uterus), 20 micromolar, 72 hrs
Procedure: as §1

HCC1569 = HCC1569 (Breast), 20 micromolar, 72 hrs
Procedure: as §1

SW13 = SW13 (Adrenal gland), 20 micromolar, 72 hrs
Procedure: as §1

TCCSUP = TCCSUP (Urinary bladder), 20 micromolar, 72 hrs
Procedure: as §1

ChaGo-K-1 = ChaGo-K-1 (Lung), 20 micromolar, 72 hrs
Procedure: as §1

Bel-7402 = Bel-7402 (Liver), 20 micromolar, 72 hrs
Procedure: as §1

ZR-75-30 = ZR-75-30 (Breast), 20 micromolar, 72 hrs
Procedure: as §1

HT-1197 = HT-1197 (Urinary bladder), 20 micromolar, 72 hrs
Procedure: as §1

BT-549 = BT-549 (Breast), 20 micromolar, 72 hrs
Procedure: as §1

T98G = T98G (Brain), 20 micromolar, 72 hrs
Procedure: as §1

NCI-H1694 = NCI-H1694 (Lung), 20 micromolar, 72 hrs
Procedure: as §1

NCI-H2347 = NCI-H2347 (Lung), 20 micromolar, 72 hrs
Procedure: as §1

NCI-H2405 = NCI-H2405 (Lung), 20 micromolar, 72 hrs
Procedure: as §1

NCI-H28 = NCI-H28 (Lung), 20 micromolar, 72 hrs
Procedure: as §1

SMILES | Percent Inhibition (HCC1937) [%] | Percent Inhibition (A704) [%] | Percent Inhibition (BT-474) [%] | Percent Inhibition (Panc 03.27) [%] | Percent Inhibition (HPAF-II) [%] | Percent Inhibition (RL95) [%] | Percent Inhibition (CW-2) [%] | Percent Inhibition (NCI-H1623) [%] | Percent Inhibition (HCC1599) [%] | Percent Inhibition (HCC1395) [%] | Percent Inhibition (MSTO-211-H) [%] | Percent Inhibition (NCI-H524) [%] | Percent Inhibition (CCF-STTG1) [%] | Percent Inhibition (M059J) [%] | Percent Inhibition (J82) [%] | Percent Inhibition (C8166) [%] | Percent Inhibition (A498) [%] | Percent Inhibition (NCI-H1770) [%] | Percent Inhibition (C3A) [%] | Percent Inhibition (HGC-27) [%] | other results
CC(C)=CCCC1(C)C=Cc2c(O)c3c(c(CC=C(C)C)c2O1)OC12C(=CC4CC1C(C)(C)OC2(CC=C(C)C(=O)O)C4=O)C3=O (mixture of isomers) [GB8] | 100 | 99 | 99 | 99 | 99 | 100 | 99 | 99 | 100 | 99 | 100 | 98 | 99 | 100 | 99 | 100 | 99 | 100 | 99 | 100 | Percent Inhibition (Colo 205): 99%; Percent Inhibition (T47D): 100%; Percent Inhibition (HEC-1-A): 100%; Percent Inhibition (HCC1569): 100%; Percent Inhibition (SW13): 99%; Percent Inhibition (TCCSUP): 100%; Percent Inhibition (ChaGo-K-1): 99%; Percent Inhibition (Bel-7402): 99%; Percent Inhibition (ZR-75-30): 99%; Percent Inhibition (HT-1197): 99%; Percent Inhibition (BT-549): 100%; Percent Inhibition (T98G): 100%; Percent Inhibition (NCI-H1694): 100%; Percent Inhibition (NCI-H2347): 99%; Percent Inhibition (NCI-H2405): 99%; Percent Inhibition (NCI-H28): 99%
O=c1c2ccc(O)c(O)c2oc2cccc(O)c12 [gl-23] | -1 | -11 | -16 | -5 | -5 | -20 | -3 | 0 | 18 | -11 | -25 | -30 | -1 | -5 | -2 | -1 | 3 | -11 | -1 | -6 | Percent Inhibition (Colo 205): -5%; Percent Inhibition (T47D): -4%; Percent Inhibition (HEC-1-A): -6%; Percent Inhibition (HCC1569): 0%; Percent Inhibition (SW13): -10%; Percent Inhibition (TCCSUP): -5%; Percent Inhibition (ChaGo-K-1): -22%; Percent Inhibition (Bel-7402): -16%; Percent Inhibition (ZR-75-30): 16%; Percent Inhibition (HT-1197): -11%; Percent Inhibition (BT-549): -16%; Percent Inhibition (T98G): -2%; Percent Inhibition (NCI-H1694): -9%; Percent Inhibition (NCI-H2347): -8%; Percent Inhibition (NCI-H2405): -14%; Percent Inhibition (NCI-H28): -10%
COC(=O)C1OC(Oc2cc(O)c3c(c2)OC(c2ccc(O)c(O)c2)CC3=O)C(O)C(O)C1O (stereo not drawn) [gly-5] | 1 | -7 | -15 | 3 | -7 | 6 | 1 | 7 | -41 | 11 | -6 | -5 | 8 | 6 | -8 | -5 | -12 | -6 | -1 | -2 | Percent Inhibition (Colo 205): -4%; Percent Inhibition (T47D): 2%; Percent Inhibition (HEC-1-A): -16%; Percent Inhibition (HCC1569): -7%; Percent Inhibition (SW13): -6%; Percent Inhibition (TCCSUP): -11%; Percent Inhibition (ChaGo-K-1): -10%; Percent Inhibition (Bel-7402): -8%; Percent Inhibition (ZR-75-30): 7%; Percent Inhibition (HT-1197): 0%; Percent Inhibition (BT-549): -12%; Percent Inhibition (T98G): 0%; Percent Inhibition (NCI-H1694): -2%; Percent Inhibition (NCI-H2347): 1%; Percent Inhibition (NCI-H2405): 5%; Percent Inhibition (NCI-H28): -17%
